Source: patent US20150132328A1 (priority 2011, published 2015)
Where two headings read alike, the source gives them in different places. Marks after values point to notes of the source that are not given here.

Assays:
LR.4 lymphoma = conditions: for Survival (percent of live animals): LR.4 + IMMP
thymocytes = system: thymocytes
Description: For that, we made organ culture in agarose gels and a filter with pores of 5 micron to prevent migration of the thymocytes. The Apoptosis was quantified with 7AAD and it was evaluated by flow cytometry.

newborn rat thymocytes = conditions: With A
platelets = conditions: three dosages
[1] = system: antibodies against Newcastle; conditions: 10 ng/dose with Newcastle vaccine
[2] = system: stress model induced in mice; conditions: for Corticosterone / IL-1: Table 22
BMK-16myc cells = system: BMK-16myc cells
Source text: We used BMK-16myc cells which are baby mouse kidney cells immortalized with genes of 16 protein of the human papilloma virus (HPV) and the myc gene, which grow in mouse, are highly invasive and produce metastases rapidly. One million cells were implanted subcutaneously in the back of each mouse. […] Subsequently, the animals were sacrificed and the tumors under the back skin as well as thymus, spleen, liver and kidney were collected for histopathological examination.
The cellular viability that was quantified by the MTT method, indicates the mitochondrial activity.

[3] = STRESS + IMMP, 10 ng/dose i.p., Table 21

Peptide LEDGPKFL + Zinc [IMMP]
Survival (percent of live animals) (LR.4 lymphoma; week 9): 67%
Survival (percent of live animals) (LR.4 lymphoma; week 10): 50%
Survival (percent of live animals) (LR.4 lymphoma; week 11): 34%
Survival (percent of live animals) (LR.4 lymphoma; week 12): 16%
Survival (percent of live animals) (LR.4 lymphoma; week 13): 16%
Survival (percent of live animals) (LR.4 lymphoma; week 14): 0%
Decrease of tumor growth (LR.4 lymphoma; last two weeks): about 33%
Gain in survival at 50% (LR.4 lymphoma; mouse, in vivo): greater than 4 weeks
Time all animals kept alive longer than the untreated group (LR.4 lymphoma; mouse, in vivo): 5 weeks
Thymocytes in apoptosis (%) (thymocytes; [IMMP] 10^−8): 1.6 ± 0.8 %
Thymocytes in apoptosis (%) (thymocytes; [IMMP] 10^−9): 1.7 ± 0.7 %
Thymocytes in apoptosis (%) (thymocytes; [IMMP] 10^−10): 1.5 ± 0.09 %
Thymocytes in apoptosis (%) (thymocytes; [IMMP] 10^−11): 2.5 ± 0.91%
Cells Percent CD4 (newborn rat thymocytes; [M] 10^−6): 15.1 ± 2.5%
Cells Percent CD8 (newborn rat thymocytes; [M] 10^−6): 5.3 ± 1.5%
Cells Percent DN (newborn rat thymocytes; [M] 10^−6): 6.6 ± 1.7%
Cells Percent DP (newborn rat thymocytes; [M] 10^−6): 72.2 ± 1.5%
Cells Percent CD4 (newborn rat thymocytes; [M] 10^−7): 14.2 ± 3.7%
Cells Percent CD8 (newborn rat thymocytes; [M] 10^−7): 6.0 ± 2.2 %
Cells Percent DN (newborn rat thymocytes; [M] 10^−7): 3.7 ± 0.2%
Cells Percent DP (newborn rat thymocytes; [M] 10^−7): 73.3 ± 2.6%
Cells Percent CD4 (newborn rat thymocytes; [M] 10^−8): 13.9 ± 2.6 %
Cells Percent CD8 (newborn rat thymocytes; [M] 10^−8): 6.1 ± 0.2 %
Cells Percent DN (newborn rat thymocytes; [M] 10^−8): 7.1 ± 2.8%
Cells Percent DP (newborn rat thymocytes; [M] 10^−8): 74.8 ± 0.7 %
Cells Percent CD4 (newborn rat thymocytes; [M] 10^−9): 17.7 ± 1.9 %
Cells Percent CD8 (newborn rat thymocytes; [M] 10^−9): 4.8 ± 1.9%
Cells Percent DN (newborn rat thymocytes; [M] 10^−9): 7.0 ± 1.1 %
Cells Percent DP (newborn rat thymocytes; [M] 10^−9): 70.5 ± 1.2 %
Cells Percent CD4 (newborn rat thymocytes; [M] 10^−10): 16.7 ± 1.0 %
Cells Percent CD8 (newborn rat thymocytes; [M] 10^−10): 4.7 ± 2.2%
Cells Percent DN (newborn rat thymocytes; [M] 10^−10): 5.1 ± 1.9%
Cells Percent DP (newborn rat thymocytes; [M] 10^−10): 73.3 ± 3.0%
Cells Percent CD4 (newborn rat thymocytes; [M] 10^−11): 15.4 ± 0.8 %
Cells Percent CD8 (newborn rat thymocytes; [M] 10^−11): 6.0 ± 1.7%
Cells Percent DN (newborn rat thymocytes; [M] 10^−11): 5.1 ± 2.0%
Cells Percent DP (newborn rat thymocytes; [M] 10^−11): 74.8 ± 5.4%
Cells Percent CD4 (newborn rat thymocytes; [M] 10^−12): 16.7 ± 0.9 %
Cells Percent CD8 (newborn rat thymocytes; [M] 10^−12): 6.0 ± 0.5 %
Cells Percent DN (newborn rat thymocytes; [M] 10^−12): 6.4 ± 0.4%
Cells Percent DP (newborn rat thymocytes; [M] 10^−12): 71.8 ± 3.5 %
Platelets (platelets; CC14 + IMMP, pretreatment 50 ng/kg each third day): 886 + 110^# 10^3/μL
Platelets (platelets; IMMP alone, no CCI4, 50 ng/kg each third day): 1560 + 248* 10^3/μL
Antibody production against Newcastle (number of times the serum could be diluted with 100% of the response) ([1]; Day 13): 0
Antibody production against Newcastle (number of times the serum could be diluted with 100% of the response) ([1]; Day 23): 18.0
Antibody production against Newcastle (number of times the serum could be diluted with 100% of the response) ([1]; Day 30): 64.5
Antibody production against Newcastle (number of times the serum could be diluted with 100% of the response) ([1]; Day 37): 60.2
Corticosterone ([2]; IMMP alone): 33.5 ± 2.1 ng/dL
IL-1 ([2]; IMMP alone): 6.9 ± 0.8 ng/dL
WEIGHT ([2]; IMMP alone, Table 22 (title: C57BL/6J mice with lymphoma LR.4)): 13.8 ± 1.2 g
IL-1 serum level [2, 3]: 6.9 ± 0.8 ng/dL
WEIGHT [2, 3]: 13.8 ± 1.2 g
corticosterone serum level [2, 3]: 33.5 ± 2.1 ng/dL
Corticosterone ([2]; STRESS + IMMP): 43.1 ± 3.8 ng/dL
IL-1 ([2]; STRESS + IMMP): 18.1 ± 2.0 ng/dL
WEIGHT ([2]; STRESS + IMMP, Table 22 (title: C57BL/6J mice with lymphoma LR.4)): 13.1 ± 0.9 g
Body weight loss ([2]; stress + IMMP (36% without)): 11%
Increase in corticosteroid production induced by stress ([2]; stress + IMMP (70% without)): 38%
Increase of plasma IL-1 over control ([2]; stress + IMMP (three times without)): increased only once
Difference with respect to control (BMK-16myc cells): not observed any difference with respect to control
Cells proliferation (control percent, MTT) (BMK-16myc cells; IMMP (M) −8): 102 ± 2.9%
Cells proliferation (control percent, MTT) (BMK-16myc cells; IMMP (M) −9): 104 ± 3.1%
Cells proliferation (control percent, MTT) (BMK-16myc cells; IMMP (M) −10): 102 ± 3.5%
Cells proliferation (control percent, MTT) (BMK-16myc cells; IMMP (M) −11): 103 ± 2.7%
Cells proliferation (control percent, MTT) (BMK-16myc cells; IMMP (M) −12): 102 ± 3.1%
